Assay results: article PMC3677594, “Characterization of a novel Entamoeba histolytica strain from Burkina Faso, Africa, possessing a unique hexokinase-2 gene” (Parasite, 2011)
Numbering of substitutions follows the chain as printed.

Legend:
Type in all cases: biochemical
[1] = biological target: T1, HXK-2 (Entamoeba histolytica, UniProt A0A8U0WP47); assay: in-gel glucokinase activity stain after IEF or starch gel; settings: ATP; G6PDH-coupled, NADPH-formazan read-out
T1 construct: gene EHI_098560; native full-length enzyme in freeze-thaw lysate, resolved by IEF or starch gel
T1 sequence (A0A8U0WP47 1-445): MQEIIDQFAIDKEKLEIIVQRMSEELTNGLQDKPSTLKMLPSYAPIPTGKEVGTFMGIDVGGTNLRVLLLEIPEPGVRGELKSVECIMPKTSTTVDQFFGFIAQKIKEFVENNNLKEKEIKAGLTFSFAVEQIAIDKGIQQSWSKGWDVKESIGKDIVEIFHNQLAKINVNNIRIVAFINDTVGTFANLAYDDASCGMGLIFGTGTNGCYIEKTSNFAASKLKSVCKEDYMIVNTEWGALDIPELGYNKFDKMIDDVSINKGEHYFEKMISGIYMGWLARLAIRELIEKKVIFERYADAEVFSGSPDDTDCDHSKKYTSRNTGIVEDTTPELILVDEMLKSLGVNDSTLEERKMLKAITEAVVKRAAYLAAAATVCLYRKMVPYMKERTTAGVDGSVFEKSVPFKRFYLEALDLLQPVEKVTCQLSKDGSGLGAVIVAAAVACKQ

[2] = biological target: T2, HXK-1 (Entamoeba histolytica, UniProt A0A8U0WP42); assay: as above; settings: ATP; G6PDH-coupled, NADPH-formazan read-out
T2 construct: gene EHI_098290; native full-length enzyme in freeze-thaw amoeba lysate, resolved by IEF or starch gel
T2 sequence (A0A8U0WP42 1-445): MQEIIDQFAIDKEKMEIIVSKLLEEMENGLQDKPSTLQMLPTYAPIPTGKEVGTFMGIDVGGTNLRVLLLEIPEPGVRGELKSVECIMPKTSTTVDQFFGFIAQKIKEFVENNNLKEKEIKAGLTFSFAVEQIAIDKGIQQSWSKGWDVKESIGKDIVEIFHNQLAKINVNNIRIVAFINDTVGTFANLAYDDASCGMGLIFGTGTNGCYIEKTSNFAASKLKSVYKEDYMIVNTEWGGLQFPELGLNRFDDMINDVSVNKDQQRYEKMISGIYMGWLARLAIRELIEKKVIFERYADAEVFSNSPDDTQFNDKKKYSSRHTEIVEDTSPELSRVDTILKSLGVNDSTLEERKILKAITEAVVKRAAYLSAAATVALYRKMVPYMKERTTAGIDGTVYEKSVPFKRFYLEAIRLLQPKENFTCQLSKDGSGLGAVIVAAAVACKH

[3] = biological target: T3, HXK-2 (Entamoeba dispar, UniProt O09488); assay: as above; settings: ATP; G6PDH-coupled, NADPH-formazan read-out
T3 construct: gene hxk2; native full-length enzyme in freeze-thaw lysate, resolved by IEF or starch gel
T3 sequence (O09488 1-445): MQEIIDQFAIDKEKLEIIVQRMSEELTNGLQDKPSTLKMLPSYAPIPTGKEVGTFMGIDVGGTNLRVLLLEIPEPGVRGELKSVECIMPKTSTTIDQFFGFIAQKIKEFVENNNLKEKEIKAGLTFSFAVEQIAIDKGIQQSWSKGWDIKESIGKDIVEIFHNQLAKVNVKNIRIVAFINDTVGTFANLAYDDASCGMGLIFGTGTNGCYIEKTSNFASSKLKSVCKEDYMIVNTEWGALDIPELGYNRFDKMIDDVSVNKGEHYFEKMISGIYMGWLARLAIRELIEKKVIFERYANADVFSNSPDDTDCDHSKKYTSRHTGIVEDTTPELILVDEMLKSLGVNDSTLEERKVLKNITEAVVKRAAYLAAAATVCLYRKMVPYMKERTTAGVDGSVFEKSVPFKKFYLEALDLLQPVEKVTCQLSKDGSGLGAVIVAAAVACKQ

[4] = biological target: T4, HXK-1 (Entamoeba dispar, UniProt O09487); assay: as above; settings: ATP; G6PDH-coupled, NADPH-formazan read-out
T4 construct: gene hxk1; native full-length enzyme in freeze-thaw lysate, resolved by IEF or starch gel

[5] = biological target: T5, HXK-1 (Entamoeba nuttalli, UniProt C5NNG5); assay: as above; settings: ATP; G6PDH-coupled, NADPH-formazan read-out
T5 construct: native full-length enzyme in freeze-thaw lysate, resolved by IEF or starch gel
T5 sequence (C5NNG5 1-445): T2 sequence (A0A8U0WP42 1-445) with E13G, I153V, I168V

[6] = biological target: T6, HXK-2 (Entamoeba nuttalli, UniProt C5NNG6); assay: as above; settings: ATP; G6PDH-coupled, NADPH-formazan read-out
T6 construct: gene ENUP19_0206G0024; native full-length enzyme in freeze-thaw lysate, resolved by IEF or starch gel
T6 sequence (C5NNG6 1-445): T1 sequence (A0A8U0WP47 1-445) with I153V, I168V, I232V, M354I

[7] = biological target: T1, HXK-2; assay: in-gel mannokinase activity stain after IEF; settings: ATP; coupled with MPI, GPI and G6PDH XV, or directly with G6PDH II
[8] = biological target: T5, HXK-1; assay: in-gel mannokinase activity stain after IEF; settings: ATP; coupled with MPI, GPI and G6PDH XV, or directly with G6PDH II
[9] = biological target: T4, HXK-1; assay: in-gel mannokinase activity stain after IEF; settings: ATP; coupled with MPI, GPI and G6PDH XV, or directly with G6PDH II
[10] = biological target: T3, HXK-2; assay: in-gel mannokinase activity stain after IEF; settings: ATP; coupled with MPI, GPI and G6PDH XV, or directly with G6PDH II
[11] = biological target: T2, HXK-1; assay: in-gel mannokinase activity stain after IEF; settings: ATP; coupled with MPI, GPI and G6PDH XV, or directly with G6PDH II
[12] = biological target: T6, HXK-2; assay: in-gel mannokinase activity stain after IEF; settings: ATP; coupled with MPI, GPI and G6PDH XV, or directly with G6PDH II

T4 sequence (O09487 entry or part of it): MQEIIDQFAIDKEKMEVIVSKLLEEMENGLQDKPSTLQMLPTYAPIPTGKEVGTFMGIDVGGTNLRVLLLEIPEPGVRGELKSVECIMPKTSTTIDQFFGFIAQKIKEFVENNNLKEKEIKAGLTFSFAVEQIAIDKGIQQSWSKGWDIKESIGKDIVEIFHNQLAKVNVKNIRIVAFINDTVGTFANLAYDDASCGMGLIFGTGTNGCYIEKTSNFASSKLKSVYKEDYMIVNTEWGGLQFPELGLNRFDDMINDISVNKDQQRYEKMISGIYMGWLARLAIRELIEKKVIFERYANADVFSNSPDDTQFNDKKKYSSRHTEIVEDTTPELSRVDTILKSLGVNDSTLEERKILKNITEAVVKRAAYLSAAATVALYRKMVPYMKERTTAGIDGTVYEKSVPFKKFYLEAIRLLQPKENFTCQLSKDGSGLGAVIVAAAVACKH

SMILES	in-gel glucokinase activity stain after IEF or starch gel [1]	in-gel glucokinase activity stain after IEF or starch gel [2]	in-gel glucokinase activity stain after IEF or starch gel [3]	in-gel glucokinase activity stain after IEF or starch gel [4]	in-gel glucokinase activity stain after IEF or starch gel [5]	in-gel glucokinase activity stain after IEF or starch gel [6]	in-gel mannokinase activity stain after IEF [7]	in-gel mannokinase activity stain after IEF [8]	in-gel mannokinase activity stain after IEF [9]	in-gel mannokinase activity stain after IEF [10]	in-gel mannokinase activity stain after IEF [11]	in-gel mannokinase activity stain after IEF [12]
OC[C@H]1OC(O)[C@H](O)[C@@H](O)[C@@H]1O (stereo partly drawn) [glucose]	substrate specificity of the HXKs of the six strains of Entamoeba spp. to phosphorylated glucose	substrate specificity of the HXKs of the six strains of Entamoeba spp. to phosphorylated glucose	substrate specificity of the HXKs of the six strains of Entamoeba spp. to phosphorylated glucose	substrate specificity of the HXKs of the six strains of Entamoeba spp. to phosphorylated glucose	substrate specificity of the HXKs of the six strains of Entamoeba spp. to phosphorylated glucose	substrate specificity of the HXKs of the six strains of Entamoeba spp. to phosphorylated glucose						
OC[C@H]1OC(O)[C@@H](O)[C@@H](O)[C@@H]1O (stereo partly drawn) [mannose]							no differences in mannokinase activity were observed between the isoenzymes HXK-1 and HXK-2	no differences in mannokinase activity were observed between the isoenzymes HXK-1 and HXK-2	no differences in mannokinase activity were observed between the isoenzymes HXK-1 and HXK-2	no differences in mannokinase activity were observed between the isoenzymes HXK-1 and HXK-2	no differences in mannokinase activity were observed between the isoenzymes HXK-1 and HXK-2	no differences in mannokinase activity were observed between the isoenzymes HXK-1 and HXK-2
